The values that follow come from US20230150924A1, “NOVEL COMPOUND HAVING CANCER METASTASIS INHIBITORY ACTIVITY, PREPARATION METHOD THEREFOR, AND PHARMACEUTICAL COMPOSITION FOR INHIBITING CANCER METASTASIS AND INVASION OR TREATING COLORECTAL CANCER, COMPRISING COMPOUND” (CELLGENTEK CO., LTD., priority 2019, published 2023).

In experiment [1] the test system is KAI1 promoter. Kind of experiment: KAI1 promoter luciferase reporter assay in transfected Caco2 cells. In kind it is cell-based, human. The following applies: 1 μM compound, 16 hours, transfected Caco2 cells, luciferase activity relative to DMSO control (=1); for fold induction at 1 µM: Homo sapiens, Caco-2, 16 h, read-out: Relative KAI promoter activity. On the technique in general: Reporter assays use an easily measured gene product as a stand-in for the process of interest.

The test system of experiment [2] is invasion of colorectal cancer cells. Kind of experiment: In vivo relative invation (invasion; EV and KITENIN controls, no method described). The note with it: relative to EV (=1); KIT = KITENIN.

On to `CN(C)c1ccc(C(=O)CNC(=O)c2cccc(Cl)c2)cc1` [Example 94, 3-chloro-N-(2-(4-(dimethylamino)phenyl)-2-oxoethyl)benzamide], for which, in experiment [1], the fold induction at 1 µM stood at 1.81. The “In vivo relative invation” value in experiment [2] is 1.096.

For `C=CC(=O)NCC(=O)c1ccc(N(C)C)cc1` [Example 95, N-(2-(4-(dimethylamino)phenyl)-2-oxoethyl)acrylamide], in experiment [1], the fold induction at 1 µM worked out at 1.21. The “In vivo relative invation” value in experiment [2] worked out at 1.16.

As to `Cc1ccccc1C(=O)NCC(=O)c1ccc(N(C)C)cc1` [Example 96, N-(2-(4-(dimethylamino)phenyl)-2-oxoethyl)-2-methylbenzamide], in experiment [1], the fold induction at 1 µM was 2.23. The “In vivo relative invation” value in experiment [2] stood at 1.141.

With `COc1ccc(C(=O)NCC(=O)c2ccc(N(C)C)cc2)cc1` [Example 97, N-(2-(4-(dimethylamino)phenyl)-2-oxoethyl)-4-methoxybenzamide], the fold induction at 1 µM in experiment [1] stood at 1.8. Moreover, in experiment [2], the “In vivo relative invation” value is 1.024.

Regarding `Cc1cccc(C(=O)NCC(=O)c2ccc(N(C)C)cc2)c1` [Example 98, N-(2-(4-(dimethylamino)phenyl)-2-oxoethyl)-3-methylbenzamide], the fold induction at 1 µM in experiment [1] is 2.64. For the same compound, the “In vivo relative invation” value in experiment [2] is on record as 1.121.

`CCC(=O)NCC(=O)c1ccc(N(C)C)cc1` [Example 99, N-(2-(4-(dimethylamino)phenyl)-2-oxoethyl)propionamide]: in experiment [1], the fold induction at 1 µM is 1.71. In experiment [2], the “In vivo relative invation” value turned out to be 1.134.

In the case of `CN(C)c1ccc(C(=O)CNC(=O)C2CC2)cc1` [Example 100, N-(2-(4-(dimethylamino)phenyl)-2-oxoethyl)cyclopropanecarboxamide], the fold induction at 1 µM in experiment [1] was found to be 1.62. In addition, the “In vivo relative invation” value in experiment [2] was 1.094.

On to `CN(C)c1ccc(C(=O)CNC(=O)c2cccs2)cc1` [Example 101, N-(2-(4-(dimethylamino)phenyl)-2-oxoethyl)thiophene-2-carboxamide], for which the fold induction at 1 µM in experiment [1] turned out to be 3.04. In addition, the “In vivo relative invation” value in experiment [2] is reported as 0.8815.

Turning to `CN(C)c1ccc(C(=O)CNC(=O)CC(C)(C)C)cc1` [Example 102, N-(2-(4-(dimethylamino)phenyl)-2-oxoethyl)-3,3-dimethylbutanamide], in experiment [1], the fold induction at 1 µM was found to be 2.53. In addition, the “In vivo relative invation” value in experiment [2] is recorded as 1.121.

Turning to `CCCCC(=O)NCC(=O)c1ccc(N(C)C)cc1` [Example 103, N-(2-(4-(dimethylamino)phenyl)-2-oxoethyl)pentanamide], the fold induction at 1 µM in experiment [1] is 1.7. Besides, in experiment [2], the “In vivo relative invation” value is 1.172.

`COc1ccc(C(=O)NCC(=O)c2ccc(N(C)C)cc2)cc1` [Example 104, N-(2-(4-(dimethylamino)phenyl)-2-oxoethyl)-4-methoxybenzamide]: the “Relative KAI promoter activity” value in experiment [1] was found to be 1.78. Further, the “In vivo relative invation” value in experiment [2] came to 1.115.

Take `CN(C)c1ccc(C(=O)CNC(=O)c2ccc(F)cc2F)cc1` [Example 105, N-(2-(4-(dimethylamino)phenyl)-2-oxoethyl)-2,4ifluorobenzamide]: in experiment [1], the fold induction at 1 µM worked out at 1.25. Moreover, the “In vivo relative invation” value in experiment [2] is 1.079.

Regarding `COCC(=O)NCC(=O)c1ccc(N(C)C)cc1` [Example 106, N-(2-(4-(dimethylamino)phenyl)-2-oxoethyl)-2-methoxyacetamide], in experiment [1], the fold induction at 1 µM turned out to be 2.44. For the same compound, the “In vivo relative invation” value in experiment [2] was determined as 1.171.

Regarding `CN(C)c1ccc(C(=O)CNS(=O)(=O)c2ccc(F)cc2)cc1` [Example 107, N-(2-(4-(dimethylamino)phenyl)-2-oxoethyl)-4-fluorobenzenesulfonamide], the fold induction at 1 µM in experiment [1] turned out to be 2.07. For the same compound, the “In vivo relative invation” value in experiment [2] is 0.9868.

With `CN(C)c1ccc(C(=O)CNS(=O)(=O)c2ccc(Cl)cc2)cc1` [Example 108, 4-chloro-N-(2-(4-(dimethylamino)phenyl)-2-oxoethyl)benzenesulfonamide], the fold induction at 1 µM in experiment [1] is 1.36. Moreover, in experiment [2], the “In vivo relative invation” value was determined as 0.989.

With `CN(C)c1ccc(C(=O)CNS(=O)(=O)c2ccccc2)cc1` [Example 109, N-(2-(4-(dimethylamino)phenyl)-2-oxoethyl)benzenesulfonamide], the fold induction at 1 µM in experiment [1] was found to be 2.89. Further, in experiment [2], the “In vivo relative invation” value amounted to 0.9054.

Take `CN(C)c1ccc(C(=O)CNS(=O)(=O)Cc2ccccc2)cc1` [Example 110, N-(2-(4-(dimethylamino)phenyl)-2-oxoethyl)-1-phenylmethanesulfonamide]: in experiment [1], the fold induction at 1 µM amounted to 1.49. Moreover, in experiment [2], the “In vivo relative invation” value is reported as 1.009.

Take `COc1ccc(S(=O)(=O)NCC(=O)c2ccc(N(C)C)cc2)cc1` [Example 111, N-(2-(4-(dimethylamino)phenyl)-2-oxoethyl)-4-methoxybenzenesulfonamide]: the fold induction at 1 µM in experiment [1] was found to be 1.44. For the same compound, the “In vivo relative invation” value in experiment [2] is reported as 1.065.

For `CN(C)c1ccc(C(=O)CNC(=O)c2ccccc2C(F)(F)F)cc1` [Example 112, N-(2-(4-(dimethylamino)phenyl)-2-oxoethyl)-2-(trifluoromethyl)benzamide], the fold induction at 1 µM in experiment [1] was found to be 2.82. For the same compound, the “In vivo relative invation” value in experiment [2] worked out at 0.9835.

As for `CN(C)c1ccc(C(=O)CNC(=O)c2cccc(C(F)(F)F)c2)cc1` [Example 113, N-(2-(4-(dimethylamino)phenyl)-2-oxoethyl)-3-(trifluoromethyl)benzamide], in experiment [1], the fold induction at 1 µM was found to be 1.4. For the same compound, the “In vivo relative invation” value in experiment [2] was 1.167.

As for `CN(C)c1ccc(C(=O)CNC(=O)c2ccc(C(F)(F)F)cc2)cc1` [Example 114, N-(2-(4-(dimethylamino)phenyl)-2-oxoethyl)-4-(trifluoromethyl)benzamide], in experiment [1], the fold induction at 1 µM was found to be 1.38. For the same compound, the “In vivo relative invation” value in experiment [2] is given as 1.197.

For the compound `CN(C)c1ccc(C(=O)CNC(=O)c2ccc(F)cc2Cl)cc1` [Example 115, 2-chloro-N-(2-(4-(dimethylamino)phenyl)-2-oxoethyl)-4-fluorobenzamide], the fold induction at 1 µM in experiment [1] turned out to be 2.04. Further, the “In vivo relative invation” value in experiment [2] is given as 1.209.

As to `CN(C)c1ccc(C(=O)CNC(=O)c2ccc(F)c(F)c2)cc1` [Example 116, N-(2-(4-(dimethylamino)phenyl)-2-oxoethyl)-3,4ifluorobenzamide], in experiment [1], the fold induction at 1 µM came out at 2.15. The “In vivo relative invation” value in experiment [2] stood at 1.164.

In the case of `CN(C)c1ccc(C(=O)CNC(=O)c2cc(Cl)cc(Cl)c2)cc1` [Example 117, 3,5-dichloro-N-(2-(4-(dimethylamino)phenyl)-2-oxoethyl)benzamide], the fold induction at 1 µM in experiment [1] is 1.32. Besides, the “In vivo relative invation” value in experiment [2] was determined as 1.076.

In the case of `CN(C)c1ccc(C(=O)CNC(=O)c2cccc(Cl)c2Cl)cc1` [Example 118, 2,3-dichloro-N-(2-(4-(dimethylamino)phenyl)-2-oxoethyl)benzamide], the fold induction at 1 µM in experiment [1] was 1.74. Also, the “In vivo relative invation” value in experiment [2] amounted to 0.7681.

`CN(C)c1ccc(C(=O)CNC(=O)c2ccc(OC(F)(F)F)cc2)cc1` [Example 119, N-(2-(4-(dimethylamino)phenyl)-2-oxoethyl)-4-(trifluoromethoxy)benzamide]: the fold induction at 1 µM in experiment [1] was 1.35. Further, the “In vivo relative invation” value in experiment [2] is on record as 1.203.

Regarding `Cc1cc(C)cc(C(=O)NCC(=O)c2ccc(N(C)C)cc2)c1` [Example 120, N-(2-(4-(dimethylamino)phenyl)-2-oxoethyl)-3,5-dimethylbenzamide], in experiment [1], the fold induction at 1 µM was 1.38. Moreover, the “In vivo relative invation” value in experiment [2] was determined as 1.097.

Turning to `COc1cc(OC)cc(C(=O)NCC(=O)c2ccc(N(C)C)cc2)c1` [Example 121, N-(2-(4-(dimethylamino)phenyl)-2-oxoethyl)-3,5imethoxybenzamide], in experiment [1], the fold induction at 1 µM came out at 0.96. The “In vivo relative invation” value in experiment [2] is given as 1.203.

As for `COc1cccc(C(=O)CNC(=O)c2ccc(Cl)cc2)c1` [Example 122, 4-chloro-N-(2-(3-methoxyphenyl)-2-oxoethyl)benzamide], the fold induction at 1 µM in experiment [1] worked out at 1.65. Further, in experiment [2], the “In vivo relative invation” value came to 1.374.

Regarding `C/C=C/C(=O)NCC(=O)c1cccc(OC)c1` [Example 123, (E)-N-(2-(3-methoxyphenyl)-2-oxoethyl)but-2-enamide], in experiment [1], the fold induction at 1 µM worked out at 1.14. The “In vivo relative invation” value in experiment [2] was determined as 1.312.

As to `CCC(=O)NCC(=O)c1cccc(OC)c1` [Example 124, N-(2-(3-methoxyphenyl)-2-oxoethyl) propionamide], in experiment [1], the fold induction at 1 µM came out at 1.04. The “In vivo relative invation” value in experiment [2] is listed as 1.266.

Take `COc1cccc(C(=O)CNC(=O)C2CC2)c1` [Example 125, N-(2-(3-methoxyphenyl)-2-oxoethyl)cyclopropanecarboxamide]: the fold induction at 1 µM in experiment [1] is 1.48. Moreover, the “In vivo relative invation” value in experiment [2] was 0.8965.

On to `COc1cccc(C(=O)CNC(=O)C2CCC2)c1` [Example 126, N-(2-(3-methoxyphenyl)-2-oxoethyl)cyclobutanecarboxamide], for which the fold induction at 1 µM in experiment [1] stood at 1.08. Further, the “In vivo relative invation” value in experiment [2] turned out to be 1.352.

As to `COc1cccc(C(=O)CNC(=O)c2cccs2)c1` [Example 127, N-(2-(3-methoxyphenyl)-2-oxoethyl)thiophene-2-carboxamide], in experiment [1], the fold induction at 1 µM amounted to 2.46. Also, the “In vivo relative invation” value in experiment [2] came to 1.351.

As for `CCCCC(=O)NCC(=O)c1cccc(OC)c1` [Example 128, N-(2-(3-methoxyphenyl)-2-oxoethyl)pentanamide], the fold induction at 1 µM in experiment [1] was 1.1. In addition, the “In vivo relative invation” value in experiment [2] is recorded as 1.179.

As for `COc1cccc(C(=O)CNS(=O)(=O)c2ccccc2)c1` [Example 129, N-(2-(3-methoxyphenyl)-2-oxoethyl)benzenesulfonamide], the fold induction at 1 µM in experiment [1] was determined as 1.3. Also, the “In vivo relative invation” value in experiment [2] came out at 1.298.

Consider `O=C(CNC(=O)c1ccc(Cl)cc1)c1cccnc1` [Example 130, 4-chloro-N-(2-oxo-2-(pyridin-3-yl)ethyl)benzamide], for which the fold induction at 1 µM in experiment [1] was determined as 1.32. In addition, the “In vivo relative invation” value in experiment [2] was 0.9875.
